Experimental data published in ChEMBL document CHEMBL1152187, “Synthesis of C4-fluorinated solamins and their growth inhibitory activity against human cancer cell lines” (2008).

Legend:
Type in all cases: functional
SNB-75 = experiment: Growth inhibition of human SNB75 cells by sulforhodamine B assay
MKN-7 = experiment: Growth inhibition of human MKN7 cells by sulforhodamine B assay
NCI-H460 = experiment: Growth inhibition of human NCI-H460 cells by sulforhodamine B assay
NCI-H522 = experiment: Growth inhibition of human NCI-H522 cells by sulforhodamine B assay
OVCAR-8 = experiment: Growth inhibition of human OVCAR8 cells by sulforhodamine B assay
SK-OV-3 = experiment: Growth inhibition of human SKOV3 cells by sulforhodamine B assay
PC-3 = experiment: Growth inhibition of human PC3 cells by sulforhodamine B assay
NCI-H226 = experiment: Growth inhibition of human NCI-H226 cells by sulforhodamine B assay
DU-145 = experiment: Growth inhibition of human DU145 cells by sulforhodamine B assay
[1] = Growth inhibition of human HBC5 cells by sulforhodamine B assay
OVCAR-5 = experiment: Growth inhibition of human OVCAR5 cells by sulforhodamine B assay
NCI-H23 = experiment: Growth inhibition of human NCI-H23 cells by sulforhodamine B assay
DMS-273 = experiment: Growth inhibition of human DMS273 cells by sulforhodamine B assay
MDA-MB-231 = experiment: Growth inhibition of human MDA-MB-231 cells by sulforhodamine B assay
SF-268 = experiment: Growth inhibition of human SF268 cells by sulforhodamine B assay
MKN-28 = experiment: Growth inhibition of human MKN28 cells by sulforhodamine B assay
HCT-116 = experiment: Growth inhibition of human HCT116 cells by sulforhodamine B assay
[2] = Growth inhibition of human BSY1 cells by sulforhodamine B assay; details: BSY-1
[3] = Growth inhibition of human HBC4 cells by sulforhodamine B assay
OVCAR-4 = experiment: Growth inhibition of human OVCAR4 cells by sulforhodamine B assay
OVCAR-3 = experiment: Growth inhibition of human OVCAR-3 cells by sulforhodamine B assay
SF-295 = experiment: Growth inhibition of human SF295 cells by sulforhodamine B assay
ACHN = experiment: Growth inhibition of human ACHN cells by sulforhodamine B assay
A549 = experiment: Growth inhibition of human A549 cells by sulforhodamine B assay
MKN-74 = experiment: Growth inhibition of human MKN74 cells by sulforhodamine B assay
SNB-78 = experiment: Growth inhibition of human SNB-78 cells by sulforhodamine B assay
MCF7 = experiment: Growth inhibition of human MCF7 cells by sulforhodamine B assay
HCT-15 = experiment: Growth inhibition of human HCT15 cells by sulforhodamine B assay
SF-539 = experiment: Growth inhibition of human SF539 cells by sulforhodamine B assay
MKN-45 = experiment: Growth inhibition of human MKN45 cells by sulforhodamine B assay
DMS-114 = experiment: Growth inhibition of human DMS114 cells by sulforhodamine B assay
[4] = Growth inhibition of human RXF631L cells by sulforhodamine B assay; details: RXF 631
KM12 = experiment: Growth inhibition of human KM12 cells by sulforhodamine B assay
HCC 2998 = experiment: Growth inhibition of human HCC2998 cells by sulforhodamine B assay
St-4 = experiment: Growth inhibition of human St-4 cells by sulforhodamine B assay
HT-29 = experiment: Growth inhibition of human HT-29 cells by sulforhodamine B assay
LOX IMVI = experiment: Growth inhibition of human LOXIMVI cells by sulforhodamine B assay
[5] = Growth inhibition of human MKN1 cells by sulforhodamine B assay; details: MKN-1
U-251 = experiment: Growth inhibition of human U251 cells by sulforhodamine B assay

| Compound | GI50 (SNB-75) | GI50 (MKN-7) | GI50 (NCI-H460) | GI50 (NCI-H522) | GI50 (OVCAR-8) | GI50 (SK-OV-3) | GI50 (PC-3) | GI50 (NCI-H226) | GI50 (DU-145) | GI50 [1] | GI50 (OVCAR-5) | GI50 (NCI-H23) | GI50 (DMS-273) | GI50 (MDA-MB-231) | GI50 (SF-268) | GI50 (MKN-28) | GI50 (HCT-116) | GI50 [2] | GI50 [3] | GI50 (OVCAR-4) | also measured |
| --- | --- | --- | --- | --- | --- | --- | --- | --- | --- | --- | --- | --- | --- | --- | --- | --- | --- | --- | --- | --- | --- |
| CCCCCCCCCCCC[C@@H](O)[C@H]1CC[C@H]([C@H](O)CCCCCCCCCC[C@H](F)CC2=C[C@H](C)OC2=O)O1 | 58 µM | 19 µM | > 100 µM | 16 µM | > 100 µM | > 100 µM | 84 µM | 40 µM | > 100 µM | > 100 µM | > 100 µM | 5.1 µM | > 100 µM | > 100 µM | > 100 µM | > 100 µM | 27 µM | 69 µM | > 100 µM | > 100 µM | GI50 (OVCAR-3): > 100 µM; GI50 (SF-295): 31 µM; GI50 (ACHN): > 100 µM; GI50 (A549): > 100 µM; GI50 (MKN-74): > 100 µM; GI50 (SNB-78): > 100 µM; GI50 (MCF7): 37 µM; GI50 (HCT-15): > 100 µM; GI50 (SF-539): > 100 µM; GI50 (MKN-45): 43 µM; GI50 (DMS-114): 0.46 µM; GI50 [4]: > 100 µM; GI50 (KM12): > 100 µM; GI50 (HCC 2998): > 100 µM; GI50 (St-4): > 100 µM; GI50 (HT-29): 92 µM; GI50 (LOX IMVI): 97 µM; GI50 [5]: > 100 µM; GI50 (U-251): > 100 µM |
| CCCCCCCCCCCC[C@@H](O)[C@H]1CC[C@H]([C@H](O)CCCCCCCCCC[C@@H](F)CC2=C[C@H](C)OC2=O)O1 | 84 µM | 0.96 µM | > 100 µM | 25 µM | 62 µM | > 100 µM | > 100 µM | 58 µM | > 100 µM | > 100 µM | > 100 µM | 23 µM | > 100 µM | > 100 µM | > 100 µM | 41 µM | 2 µM | > 100 µM | > 100 µM | > 100 µM | GI50 (OVCAR-3): > 100 µM; GI50 (SF-295): 37 µM; GI50 (ACHN): > 100 µM; GI50 (A549): > 100 µM; GI50 (MKN-74): > 100 µM; GI50 (SNB-78): > 100 µM; GI50 (MCF7): 56 µM; GI50 (HCT-15): > 100 µM; GI50 (SF-539): > 100 µM; GI50 (MKN-45): > 100 µM; GI50 (DMS-114): 0.26 µM; GI50 [4]: > 100 µM; GI50 (KM12): > 100 µM; GI50 (HCC 2998): > 100 µM; GI50 (St-4): 74 µM; GI50 (HT-29): > 100 µM; GI50 (LOX IMVI): 6.5 µM; GI50 [5]: > 100 µM; GI50 (U-251): > 100 µM |
| CCCCCCCCCCCC[C@@H](O)[C@H]1CC[C@H]([C@H](O)CCCCCCCCCC[C@@H](O)CC2=C[C@H](C)OC2=O)O1 [MURISOLIN] | 39 µM | 0.7 µM | > 100 µM | 3.6 µM | 38 µM | > 100 µM | 17 µM | 29 µM | > 100 µM | 9.7 µM | > 100 µM | 0.22 µM | 72 µM | > 100 µM | > 100 µM | 2.8 µM | 3.7 µM | 8.3 µM | > 100 µM | 6.9 µM | GI50 (OVCAR-3): 6.9 µM; GI50 (SF-295): 7.3 µM; GI50 (ACHN): > 100 µM; GI50 (A549): 96 µM; GI50 (MKN-74): 4.6 µM; GI50 (SNB-78): 78 µM; GI50 (MCF7): 3.9 µM; GI50 (HCT-15): 51 µM; GI50 (SF-539): 88 µM; GI50 (MKN-45): > 100 µM; GI50 (DMS-114): < 0.01 µM; GI50 [4]: 40 µM; GI50 (KM12): > 100 µM; GI50 (HCC 2998): > 100 µM; GI50 (St-4): 41 µM; GI50 (HT-29): > 100 µM; GI50 (LOX IMVI): 1.9 µM; GI50 [5]: 20 µM; GI50 (U-251): 7.3 µM |
| CCCCCCCCCCCC[C@@H](O)[C@H]1CC[C@H]([C@H](O)CCCCCCCCCCCCC2=C[C@H](C)OC2=O)O1 [REL-SOLAMIN] | > 100 µM | 13 µM | > 100 µM | 58 µM | > 100 µM | > 100 µM | > 100 µM | > 100 µM | > 100 µM | > 100 µM | > 100 µM | 73 µM | > 100 µM | > 100 µM | > 100 µM | 14 µM | > 100 µM | > 100 µM | > 100 µM | > 100 µM | GI50 (OVCAR-3): > 100 µM; GI50 (SF-295): 40 µM; GI50 (ACHN): > 100 µM; GI50 (A549): > 100 µM; GI50 (MKN-74): > 100 µM; GI50 (SNB-78): > 100 µM; GI50 (MCF7): 71 µM; GI50 (HCT-15): > 100 µM; GI50 (SF-539): > 100 µM; GI50 (MKN-45): > 100 µM; GI50 (DMS-114): 4.3 µM; GI50 [4]: > 100 µM; GI50 (KM12): > 100 µM; GI50 (HCC 2998): > 100 µM; GI50 (St-4): > 100 µM; GI50 (HT-29): > 100 µM; GI50 (LOX IMVI): 29 µM; GI50 [5]: > 100 µM; GI50 (U-251): > 100 µM |
